Test results published in the CheMixHub viscosity set.

Assay: xn = mol fraction of the nth substance listed

c1cscn1 + C1CCCCC1
298.15 K, 101 kPa
Conditions | viscosity [mPa·s]
x1 = 0.1468 | 0.8439
x1 = 0.2448 | 0.7891
x1 = 0.4908 | 0.8119
x1 = 0.7468 | 0.8753
x1 = 0.8357 | 0.904
x1 = 0.8841 | 0.928
x1 = 0.9385 | 0.958

CNS(C)(=O)=O + CCO
303.15 K, 101.33 kPa
Conditions | viscosity [mPa·s]
x1 = 0.1006 | 1.105
x1 = 0.201 | 1.3
x1 = 0.2995 | 1.58
x1 = 0.3949 | 1.871
x1 = 0.4923 | 2.303
x1 = 0.5949 | 2.888
x1 = 0.6892 | 3.612
x1 = 0.7757 | 4.493
x1 = 0.8905 | 6.09

c1cscn1 + ClC(Cl)(Cl)Cl
298.15 K, 101 kPa
Conditions | viscosity [mPa·s]
x1 = 0.1198 | 0.9186
x1 = 0.2066 | 0.9327
x1 = 0.2139 | 0.933
x1 = 0.2899 | 0.9459
x1 = 0.3525 | 0.9561
x1 = 0.4862 | 0.9809
x1 = 0.592 | 0.994
x1 = 0.689 | 1.007
x1 = 0.7728 | 1.01
x1 = 0.8194 | 1.011
x1 = 0.8719 | 1.011
x1 = 0.9315 | 1.006

C1=CCCCC1 + C1COCCO1
303.15 K, 101 kPa
Conditions | viscosity [mPa·s]
x1 = 0.1067 | 0.932
x1 = 0.2617 | 0.833
x1 = 0.3551 | 0.789
x1 = 0.4267 | 0.754
x1 = 0.4787 | 0.734
x1 = 0.5637 | 0.702
x1 = 0.6603 | 0.668
x1 = 0.7706 | 0.634
x1 = 0.8678 | 0.606

CCCCCl + CCCCCCCCCCCC
298 K, 101.3 kPa
Conditions | viscosity [mPa·s]
x2 = 0.1032 | 0.5072
x2 = 0.202 | 0.5794
x2 = 0.2999 | 0.6598
x2 = 0.3986 | 0.7447
x2 = 0.4981 | 0.8232
x2 = 0.6017 | 0.9282
x2 = 0.7015 | 1.034
x2 = 0.7981 | 1.13
x2 = 0.8948 | 1.22

CCCCCCCCCl + CCCCCCCCCC
298 K, 101.3 kPa
Conditions | viscosity [mPa·s]
x2 = 0.1115 | 1.067
x2 = 0.2067 | 1.026
x2 = 0.3061 | 0.9966
x2 = 0.4041 | 0.969
x2 = 0.505 | 0.9433
x2 = 0.6124 | 0.9242
x2 = 0.707 | 0.8969
x2 = 0.797 | 0.8862
x2 = 0.8983 | 0.874

[Li+].[O-][Cl+3]([O-])([O-])[O-] + C1COCO1
101 kPa, x1 = 0.07
Conditions | viscosity [mPa·s]
303.15 K | 1
308.15 K | 0.93
313.15 K | 0.89
318.15 K | 0.85
323.15 K | 0.81

CCOC(=O)[C@@H](O)[C@H](O)C(=O)OCC + CC(C)CCO
viscosity [mPa·s], 101 kPa
Conditions | x1 = 0.1 | x1 = 0.2 | x1 = 0.3 | x1 = 0.4001 | x1 = 0.5 | x1 = 0.6001 | x1 = 0.6999 | x1 = 0.7997 | x1 = 0.8998
293.15 K | 5.227 | 7.032 | 9.91 | 13.58 | 20.31 | 31.03 | 46.13 | 74.54 | 129.6
298.15 K | 4.438 | 5.859 | 8.123 | 10.83 | 15.81 | 23.2 | 33.35 | 51.5 | 84.95
303.15 K | 3.768 | 4.88 | 6.638 | 8.752 | 12.37 | 17.66 | 24.71 | 36.84 | 58.14
308.15 K | 3.225 | 4.138 | 5.497 | 7.134 | 9.862 | 13.75 | 18.79 | 27.17 | 41.31
313.15 K | 2.774 | 3.487 | 4.567 | 5.855 | 7.945 | 10.86 | 14.56 | 20.53 | 30.25
318.15 K | 2.416 | 3.02 | 3.904 | 4.935 | 6.58 | 8.824 | 11.61 | 15.99 | 22.88
323.15 K | 2.13 | 2.649 | 3.374 | 4.215 | 5.529 | 7.295 | 9.449 | 12.74 | 17.8

CCOC(=O)c1ccccc1 + COc1ccccc1
viscosity [mPa·s], 101 kPa
Conditions | x1 = 0.0786 | x1 = 0.1616 | x1 = 0.2448 | x1 = 0.3356 | x1 = 0.4336 | x1 = 0.5357 | x1 = 0.6386 | x1 = 0.7505 | x1 = 0.8709
303.15 K | 0.973 | 1.026 | 1.085 | 1.156 | 1.229 | 1.323 | 1.416 | 1.521 | 1.631
308.15 K | 0.896 | 0.949 | 1.007 | 1.071 | 1.143 | 1.224 | 1.311 | 1.404 | 1.504
313.15 K | 0.805 | 0.856 | 0.908 | 0.963 | 1.026 | 1.101 | 1.174 | 1.256 | 1.342

Cc1ccccc1[N+](=O)[O-] + CN1CCC[C@H]1c1cccnc1
viscosity [mPa·s], 101.33 kPa
Conditions | x2 = 0.1058 | x2 = 0.2027 | x2 = 0.2928 | x2 = 0.4027 | x2 = 0.4939 | x2 = 0.5968 | x2 = 0.6894 | x2 = 0.7864 | x2 = 0.8909
298.15 K | 2.229 | 2.424 | 2.583 | 2.775 | 3.008 | 3.117 | 3.335 | 3.47 | 3.697
323.15 K | 1.405 | 1.481 | 1.557 | 1.625 | 1.7 | 1.764 | 1.909 | 1.919 | 2.002

CCOC(=O)c1ccccc1 + CC#N
viscosity [mPa·s], 101.33 kPa
Conditions | x1 = 0.129 | x1 = 0.25 | x1 = 0.362 | x1 = 0.469 | x1 = 0.571 | x1 = 0.657 | x1 = 0.756 | x1 = 0.832 | x1 = 0.914
293.15 K | 0.465 | 0.496 | 0.554 | 0.627 | 0.714 | 0.843 | 1.056 | 1.362 | 1.764
303.15 K | 0.416 | 0.444 | 0.495 | 0.551 | 0.621 | 0.721 | 0.897 | 1.12 | 1.418
313.15 K | 0.378 | 0.403 | 0.443 | 0.491 | 0.549 | 0.631 | 0.764 | 0.939 | 1.161
323.15 K | 0.34 | 0.362 | 0.397 | 0.436 | 0.485 | 0.55 | 0.659 | 0.799 | 0.972

CC(C)O + CCO
101 kPa
Conditions | viscosity [mPa·s]
298.15 K, x2 = 0.214 | 1.796
298.15 K, x2 = 0.393 | 1.607
298.15 K, x2 = 0.565 | 1.445
298.15 K, x2 = 0.725 | 1.299
298.15 K, x2 = 0.869 | 1.182
308.15 K, x2 = 0.5 | 1.186
313.15 K, x2 = 0.5 | 1.066
318.15 K, x2 = 0.5 | 0.9542

N#CCc1ccccc1 + CNC(C)=O
308.15 K, 101.33 kPa
Conditions | viscosity [mPa·s]
x2 = 0.0446 | 1.599
x2 = 0.2775 | 1.791
x2 = 0.3928 | 1.896
x2 = 0.5001 | 2.049
x2 = 0.6015 | 2.252
x2 = 0.6941 | 2.456
x2 = 0.7795 | 2.662
x2 = 0.8542 | 2.87
x2 = 0.9375 | 3.109

O=C(O)/C=C\C(=O)O + C[N+](C)(C)CCO.[Cl-]
viscosity [mPa·s], 101.3 kPa
Conditions | 293.2 K | 303.2 K | 313.2 K
x2 = 0.49 | – | 8065 | 4196
x2 = 0.597 | 7984 | 4891 | 2579
x2 = 0.669 | 4183 | 2672 | 1488

C1=CCCCC1 + ClC(Cl)Cl
303.15 K, 101 kPa
Conditions | viscosity [mPa·s]
x1 = 0.1005 | 0.62
x1 = 0.2478 | 0.604
x1 = 0.3282 | 0.595
x1 = 0.4351 | 0.585
x1 = 0.4917 | 0.581
x1 = 0.629 | 0.575
x1 = 0.7454 | 0.573
x1 = 0.8452 | 0.571

CCC(C)CO (configuration not stated) + O
298.15 K, 101 kPa
Conditions | viscosity [mPa·s]
x2 = 0.0025 | 4.797
x2 = 0.0548 | 4.447
x2 = 0.0985 | 4.284
x2 = 0.1421 | 4.163
x2 = 0.1741 | 4.101
x2 = 0.1943 | 4.07
x2 = 0.2403 | 4.025
x2 = 0.2657 | 4.011
x2 = 0.2859 | 4.01
x2 = 0.2923 | 4.005
x2 = 0.3149 | 4.005

CCCCCCCCCCCl + CCCCCCCCCC
viscosity [mPa·s], 101 kPa
Conditions | x2 = 0.1 | x2 = 0.2004 | x2 = 0.2954 | x2 = 0.3988 | x2 = 0.4972 | x2 = 0.593 | x2 = 0.6968 | x2 = 0.7947 | x2 = 0.8906
293.15 K | 1.796 | 1.66 | 1.539 | 1.419 | 1.315 | 1.225 | 1.136 | 1.063 | 0.997
298.15 K | 1.649 | 1.523 | 1.415 | 1.307 | 1.214 | 1.133 | 1.054 | 0.99 | 0.931
303.15 K | 1.5 | 1.388 | 1.291 | 1.196 | 1.114 | 1.042 | 0.973 | 0.917 | 0.867
308.15 K | 1.353 | 1.25 | 1.167 | 1.084 | 1.013 | 0.951 | 0.891 | 0.844 | 0.802

COc1ccc(/C=C/C(=O)c2ccccc2)cc1 + CCO
viscosity [mPa·s], 101 kPa
Conditions | x1 = 0.000144 | x1 = 0.000288 | x1 = 0.0005755 | x1 = 0.00115 | x1 = 0.002298 | x1 = 0.004586
298.15 K | 1.12 | 1.173 | 1.263 | 1.34 | 1.364 | 1.439
303.15 K | 1.019 | 1.072 | 1.162 | 1.239 | 1.263 | 1.338
308.15 K | 0.9181 | 0.971 | 1.061 | 1.138 | 1.162 | 1.237
